Each compound was assayed against T1, SOS1 binding to KRAS G12C (Homo sapiens, UniProt Q07889) (assay: SOS1 GTP substitution inhibition test (HTRF/TR-FRET, KRAS G12C-SOS1 binding inhibitory ability)). Conditions: HTRF, GST-KRAS G12C (2-169), SOS1-Strep (564-1049), 1.6, 8, 40, 200, 1,000 nM.
T1 construct: consisting of amino acid residues 564 to 1049 which are the catalytic domain; purchased Reaction Biology Corporation MSC-11-502 (SOS1-Strep); MSC-11-538 (KRAS G12C)
T1 sequence (Q07889 564-1049): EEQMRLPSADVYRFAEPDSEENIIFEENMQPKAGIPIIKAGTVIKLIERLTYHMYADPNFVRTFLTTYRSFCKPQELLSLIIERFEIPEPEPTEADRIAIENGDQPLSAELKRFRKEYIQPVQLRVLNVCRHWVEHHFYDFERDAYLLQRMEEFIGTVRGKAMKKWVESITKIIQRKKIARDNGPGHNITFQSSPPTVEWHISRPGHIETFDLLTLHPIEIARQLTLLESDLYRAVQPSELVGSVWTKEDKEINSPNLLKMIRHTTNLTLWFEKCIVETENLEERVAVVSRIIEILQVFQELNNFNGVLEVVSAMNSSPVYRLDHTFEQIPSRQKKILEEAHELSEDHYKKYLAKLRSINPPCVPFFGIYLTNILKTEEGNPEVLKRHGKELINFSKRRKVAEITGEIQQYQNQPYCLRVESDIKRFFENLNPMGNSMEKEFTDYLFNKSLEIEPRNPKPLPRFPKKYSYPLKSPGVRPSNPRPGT
Format: biochemical
Protocol: In order to determine whether the substitution function of SOS1 binding to KRAS G12C is inhibited by the above-described example compounds, a homogeneous time-resolved fluorescence (HTRF) test was performed using G12C(#MSC-11-538) and SOS1-Strep(#MSC-11-502) purchased from Reaction Biology Corporation (MA, USA). The activity of SOS1 enzyme was determined by measuring the amount of GTP bound to KRAS G12C proteins, using the principle of time-resolved fluorescence energy transfer (TR-FRET). Based on the principle that terbium bound to the GST-binding antibody of the GST-KRAS G12C protein acts as a donor of fluorescence resonance energy transfer (FRET), and the GTP bound to the KRAS G12C protein is labeled with the fluorescent agent DY-647P1 and acts as a receiver, when the more GTP is bound to the KRAS G12C protein by the substitution reaction of SOS1 according to this test, the higher HTRF or FRET signal is measured. To summarize, glutathione S-transferase (GST)-tagged KRAS G12C proteins (consisting of amino acid residues 2 to 169) required for the reaction, streptavidin-tagged SOS1 proteins (consisting of amino acid residues 564 to 1049 which are the catalytic domain), anti-GST antibody (#61[…]) purchased from CISBIO corporation, nucleic acid (#NU-820-647P1) purchased from Jena Bioscience GmbH were mixed in a buffer solution formed from 10 mM HEPES pH7.4, 150 mM NaCl, 5 mM MgCl2, and 1 mM dithiothreitol (DTT), and the mixture was added to a 384-well plate and reacted at room temperature. Next, FRET signals were measured with a Perkin Elmer Envision microplate reader. In this case, an excitation signal (excitation) was measured at 320 nm, and an emission signal (emission) was measured at 615/665 nm. The fluorescence measurement value when the SOS1 protein was not included was calculated as a background signal value, and the background signal value was subtracted from all of the measured HTRF values. The fluorescence measurement value when the synthesized compound was not included was measured as a control value, and this value was selected as a reference point of 100%. For each of the example compounds, fluorescence was measured at concentrations of 1.6, 8, 40, 200, and 1,000 nM (5 points, 5-fold), and the 50% activity inhibition value (IC50) of each of the compounds was calculated using GraphPad Prism. When the IC50 value was 50 nM or less, the inhibitory ability was denoted as +++. When the IC50 value was more than 50 nM and 100 nM or less, the inhibitory ability was denoted as ++. When the IC50 value was more than 100 nM, the inhibitory ability was denoted as +.

Row | IC50 [nM] | SMILES
1 | ≤ 50 | COc1cc2c(N[C@H](C)c3cc(N)cc(C(F)(F)F)c3)nc(C)nc2cc1C(=O)N1CCSC1 [Example 20, (R)-(4-((1-(3-amino-5-(trifluoromethyl)phenyl)ethyl)amino)-6-methoxy-2-methylquinazolin-7-yl)(thiazolidine-3-yl)methanone]
2 | > 100 | COc1cc2c(N[C@H](C)c3cc(N)cc(C#N)c3)nc(C)nc2cc1C(=O)N1CCOCC1 [Example 22, (R)-3-amino-5-(1-((6-methoxy-2-methyl-7-(morpholine-4 carbonyl)quinazolin-4-yl)amino)ethyl)benzonitrile]
3 | > 100 | COc1cc2c(N[C@H](C)c3cc(N)cc(C(F)(F)F)c3)nc(C)nc2cc1OCC1COC1 [Example 39, (R)-N-(1-(3-amino-5-(trifluoromethyl)phenyl)ethyl)-6-methoxy-2-methyl-7-(oxetane-3-ylmethoxy)quinazoline-4-amine]
4 | 50 to 100 | CNc1cc2c(N[C@H](C)c3cc(N)cc(C(F)(F)F)c3)nc(C)nc2cc1C(=O)N1CCC1 [Example 62, (R)-(4-((1-(3-amino-5-(trifluoromethyl)phenyl)ethyl)amino)-2-methyl-6-(methylamino)quinazoline-7-yl)(azetidine-1-yl)methanone]
5 | > 100 | COc1cc2c(N[C@H](C)c3cc(N)cc(C(F)(F)F)c3)nc(C)nc2cc1OCC1CCOCC1 [Example 38, (R)-N-(1-(3-amino-5-(trifluoromethyl)phenyl)ethyl)-6-methoxy-2-methyl-7-((tetrahydro-2H-pyran-4-yl)methoxy)quinazoline-4-amine]
6 | ≤ 50 | COc1cc2c(N[C@H](C)c3cc(N)cc(C(F)F)c3)nc(C)nc2cc1C(=O)N1CCOCC1 [Example 29, (R)-(4-((1-(3-amino-5-(difluoromethyl)phenyl)ethyl)amino)-6-methoxy-2-methylquinazolin-7-yl)(morpholino)methanone]
7 | 50 to 100 | CCNc1cc([C@@H](C)Nc2nc(C)nc3cc(C(=O)N4CCOCC4)c(OC)cc23)cc(C(F)(F)F)c1 [Example 31, (R)-(4-((1-(3-(ethylamino)-5-(trifluoromethyl)phenyl)ethyl)amino)-6-methoxy-2-methylquinazolin-7-yl)(morpholino)methanone]
8 | 50 to 100 | Cc1nc(N[C@H](C)c2cc(N)cc(C(F)(F)F)c2)c2cc(NC3CCCC3)c(C(=O)N3CCOCC3)cc2n1 [Example 45, (R)-(4-((1-(3-amino-5-(trifluoromethyl)phenyl)ethyl)amino)-6-(cyclopentylamino)-2-methylquinazoline-7-yl)(morpholino)methanone]
9 | 50 to 100 | Cc1nc(N[C@H](C)c2cc(N)cc(C(F)(F)F)c2)c2cc(NC(C)C)c(C(=O)N3CCOCC3)cc2n1 [Example 47, (R)-(4-((1-(3-amino-5-(trifluoromethyl)phenyl)ethyl)amino)-6-(isopropylamino)-2-methylquinazoline-7-yl)(morpholino)methanone]
10 | 50 to 100 | COCCNc1cc2c(N[C@H](C)c3cc(N)cc(C(F)(F)F)c3)nc(C)nc2cc1C(=O)N1CCOCC1 [Example 44, (R)-(4-((1-(3-amino-5-(trifluoromethyl)phenyl)ethyl)amino)-6-((2-methoxyethyl)amino)-2-methylquinazoline-7-yl)(morpholino)methanone]
11 | 50 to 100 | CNc1cc2c(N[C@H](C)c3cc(N)cc(C(F)(F)F)c3)nc(C)nc2cc1CN1CCOCC1 [Example 49, (R)-N^4-(1-(3-amino-5-(trifluoromethyl)phenyl)ethyl)-N^6,2-dimethyl-7-(morpholinomethyl)quinazoline-4,6-diamine]
12 | ≤ 50 | CNc1cc2c(N[C@H](C)c3cc(N)cc(C(F)(F)F)c3)nc(C)nc2cc1C(=O)N1CCOCC1 [Example 40, (R)-(4-((1-(3-amino-5-(trifluoromethyl)phenyl)ethyl)amino)-2-methyl-6-(methylamino)quinazoline-7-yl)(morpholino)methanone]
13 | ≤ 50 | CNc1cc2c(N[C@H](C)c3cc(N)cc(C(F)(F)F)c3)nc(C)nc2cc1C(=O)N1CCSC1 [Example 53, (R)-(4-((1-(3-amino-5-(trifluoromethyl)phenyl)ethyl)amino)-2-methyl-6-(methylamino)quinazoline-7-yl)(thiazolidine-3-yl)methanone]

Continued, compound first:

Row | SMILES | IC50 [nM]
14 | COc1cc2c(N[C@H](C)c3cc(N)cc(C(F)(F)F)c3F)nc(C)nc2cc1C(=O)N1CCOCC1 [Example 25, (R)-(4-((1-(5-amino-2-fluoro-3-(trifluoromethyl)phenyl)ethyl)amino)-6-methoxy-2-methylquinazolin-7-yl)(morpholino)methanone] | ≤ 50
15 | COc1cc2c(N[C@H](C)c3cc(N)cc(C(F)F)c3F)nc(C)nc2cc1CN1CCOCC1 [Example 35, (R)-N-(1-(5-amino-3-(difluoromethyl)-2-fluorophenyl)ethyl)-6-methoxy-2-methyl-7-(morpholinomethyl)quinazoline-4-amine] | ≤ 50
16 | COc1cc2c(N[C@H](C)c3cc(N)cc(C(F)(F)F)c3C)nc(C)nc2cc1C(=O)N1CCOCC1 [Example 16, (R)-(4-((1-(5-amino-2-methyl-3-(trifluoromethyl)phenyl)ethyl)amino)-6-methoxy-2-methylquinazolin-7-yl)(morpholino)methanone] | 50 to 100
17 | CNc1cc2c(N[C@H](C)c3cc(N)cc(C(F)(F)F)c3)nc(C)nc2cc1C(=O)N1CCN(C)CC1 [Example 57, (R)-(4-((1-(3-amino-5-(trifluoromethyl)phenyl)ethyl)amino)-2-methyl-6-(methylamino)quinazoline-7-yl)(4-methylpiperazin-1-yl)methanone] | 50 to 100
18 | COc1cc2c(NC(C)c3cc(-c4ccccc4CN(C)C)cs3)nc(C)nc2cc1C(=O)N1CCOCC1 (centres unmarked) [Example 12] | 50 to 100
19 | COc1cc2c(N[C@H](C)c3cc(N)cc(-c4ccoc4)c3)nc(C)nc2cc1C(=O)N1CCOCC1 [Example 28, (R)-(4-((1-(3-amino-5-(furan-3-yl)phenyl)ethyl)amino)-6-methoxy-2-methylquinazolin-7-yl)(morpholino)methanone] | ≤ 50
20 | COCCNc1cc2c(N[C@H](C)c3cc(N)cc(C(F)F)c3F)nc(C)nc2cc1C(=O)N1CCOCC1 [Example 56, (R)-(4-((1-(5-amino-3-(difluoromethyl)-2-fluorophenyl)ethyl)amino)-6-((2-methoxyethyl)amino)-2-methylquinazolin-7-yl)(morpholino)methanone] | ≤ 50
21 | CNc1cc2c(N[C@H](C)c3cc(N)cc(C(F)F)c3)nc(C)nc2cc1C(=O)N1CCOCC1 [Example 51, (R)-(4-((1-(3-amino-5-(difluoromethyl)phenyl)ethyl)amino)-2-methyl-6-(methylamino)quinazoline-7-yl)(morpholino)methanone] | ≤ 50
22 | CNc1cc2c(N[C@H](C)c3cc(N)cc(C(F)(F)F)c3)nc(C)nc2cc1C(=O)N1CCNCC1 [Example 61, (R)-(4-((1-(3-amino-5-(trifluoromethyl)phenyl)ethyl)amino)-2-methyl-6-(methylamino)quinazoline-7-yl)(piperazine-1-yl)methanone] | ≤ 50
23 | CNc1cc2c(N[C@H](C)c3cc(N)cc(C(F)F)c3F)nc(C)nc2cc1C(=O)N1CCOCC1 [Example 43, (R)-(4-((1-(5-amino-3-(difluoromethyl)-2-fluorophenyl)ethyl)amino)-2-methyl-6-(methylamino)quinazoline-7-yl)(morpholino)methanone] | ≤ 50

Reference: patent publication US20240067613A1, “NOVEL QUINAZOLINE DERIVATIVES AS SOS1 INHIBITORS AND USE THEREOF” (HANMI PHARMACEUTICAL CO., LTD., priority 2020, published 2024)
